Measured values: patent US20050208542A1, “Methods of genotoxicity screening, and biosensors” (priority 2004, published 2005)

Legend:
[1] = system: ST-ds-DNA; assay: Catalytic SWV with Ru(bpy)3^2+ of DNA(Cyt P450cam/ST-ds-DNA)2 films after incubation
Experimental: (§2) Film construction. Films were grown on PG disks (pyrolytic graphite) that had been abraded on 400 grit SiC paper, then with coarse Emery paper (3M Crystal Bay), then ultrasonicated in water for 30 seconds. Layers of ds-DNA and protein were adsorbed alternately for 15 minutes onto the rough PG electrodes, and washed with water between adsorption steps. Adsorbate solutions were: (a) 2 mg mL^−1 DNA in 5 mM pH 7.1 TRIS buffer and 0.50 M NaCl; (b) 2 mg mL^−1 PDDA in 50 mM NaCl; (c) 3 mg mL^−1 Mb in 10 mM pH 5.5 acetate buffer; and (d) 1 mg mL^−1 cyt P450cam in the pH 5.5 buffer. Film of architecture denoted PDDA/DNA(/Mb/DNA)2 or PDDA/DNA(/cyt P450cam/DNA)2 were employed.
Incubation of DNA/protein films for metabolite generation and reaction with DNA was done in a thermostated vessel at 37° C. containing 1-4% styrene (by volume). To activate the enzymes for styrene oxide formation, 0.2 to 2 mM H2O2 was added to 10 mL pH 5.5 buffer containing 50 mM NaCl. After incubation, the electrodes were rinsed with water and transferred to pH 5.5 buffer containing 50 μM Ru(bpy)3^2+ for analysis by catalytic SWV.
(§3) Voltammetry. CH Instruments 660A and CH 430 electrochemical analyzers were used for square wave voltammetry (SWV), with ˜95% ohmic drop compensated. […]

[2] = system: CT-ds-DNA; assay: SWV of Ru/Mb/DNA films (PSS/ClRu-PVP/CT-ds-DNA/(Mb/CT-ds-DNA)2) after incubation; details: for SWV peak current at 0.75 V: saturated styrene or toluene and H2O2, pH 5.5
[3] = system: ds-CT-DNA; assay: SWV with Co(bpy)3^3+ electroactive probe, PDDA/ds-CT-DNA(cyt P450cam/ds-CT-DNA)2 films; details: 4% styrene + 2 mM H2O2
Experimental: as §2
(§4) Incubation of DNA/protein films for metabolite generation and reaction with DNA was done in a thermostated vessel at 37° C. containing 1-4% styrene (by volume). To activate the enzymes for styrene oxide formation, 0.2 to 2 mM H2O2 was added to 10 mL pH 5.5 buffer containing 50 mM NaCl. […] For the probe binding method, washed electrodes were transferred to pH 5.5 buffer containing 20 μM Co(bpy)3^3+.
CH Instruments 660A and CH 430 electrochemical analyzers were used for square wave voltammetry (SWV), with ˜95% ohmic drop compensated. […]
(§5) The time course of the reaction can readily be monitored via the ratio of initial SWV peak current for a given film (Ip,i) to that after reaction (Ip,f). […]

[4] = system: ds-DNA; assay: Catalytic SWV with Ru(bpy)3^2+ of PDDA/ds-DNA(/Mb/ds-DNA)2 films after incubation; format: biochemical, calf thymus (CT), salmon testes (ST)
[5] = system: ds-DNA; assay: SWV with Co(bpy)3^3+ electroactive probe, PDDA/ds-DNA(/Mb/ds-DNA)2 films; format: biochemical, calf thymus (CT), salmon testes (ST)
Experimental: as §2, §4, §3, §5

[6] = system: poly[G]; assay: ECL/SWV of (Ru-PVP/poly[G])2 films after incubation; format: biochemical; details: 10 minutes incubation, saturated solution
Experimental: Reactions with Styrene Oxide.
In addition to catalytic oxidation of guanines, it is possible that adducts formed on DNA by reaction with styrene oxide could be catalytically oxidized by the ruthenium metallopolymer. To assess this possibility, styrene oxide was incubated with films containing individual polynucleotides and the metallopolymer. […] An 80% increase in SWV peak current and a 40% increase in ECL intensity was found.

[7] = system: ds-ST-DNA; assay: HPLC-MS/MS of hydrolyzed DNA reacted with styrene oxide; format: biochemical, salmon testes; details: ds-ST-DNA incubated with styrene oxide 48 hours at 37° C., HPLC-MS/MS (MRM)
Experimental: (§1) Capillary electrophoretic analysis. A Beckman PACE 5000 with UV detector at 254 nm was used for capillary electrophoresis (CE) to analyze hydrolyzed DNA that had been reacted with styrene oxide. 1 mg mL^−1 ST ds-DNA in 50 mL buffer or (PDDA/DNA)2 films on 3×10 cm carbon cloth in solution were reacted in 50 mL buffer and 0.87 mmol styrene oxide at 37° C. with stirring. Reacted DNA in solution or in films was hydrolyzed by incubating with deoxyribonuclease I (0.1 mg per mg of DNA) for 20 hr at 37° C., followed by incubation with phosphodiesterase I (0.01 unit/mg DNA) and phosphatase, alkaline (0.6 unit/mg DNA) for 5 hours at 37° C. The resulting samples, consisting mainly of individual nucleosides, were analyzed using CE with 20 mM pH 7 phosphate buffer and 100 mM SDS. The capillary was 75 μm×50 cm, with a polyimide coating. To make standard styrene oxide adducts, 0.5 mg mL^−1 guanosine or adenosine were reacted with styrene oxide.
Liquid chromatography (LC)-mass spectrometry (MS). A Perkin-Elmer LC with diode-array (255 nm and 280 nm) and mass spectrometer (Micromass, Quattro II) detection were used. Full-scan spectra were taken at low cone voltage (15 V) in the positive ion mode (ESI). The HPLC column was Restek Ultra C-18 reversed-phase (i. d. 2.1 mm, length 10 cm, particle size 5 μm). Solvents were A: 5% acetonitrile/95% water with 0.05% TFA and B: 100% acetonitrile with 0.05% TFA. […]

[8] = system: ST ds-DNA; assay: Capillary electrophoretic analysis of hydrolyzed DNA reacted with styrene oxide; format: biochemical, salmon testes; details: (PDDA/DNA)2 film on carbon cloth, saturated styrene oxide, 48 hr, 37° C., compared with undamaged hydrolyzed DNA
Experimental: as §1
It was previously shown that that styrene oxide is formed from styrene using Mb and cyt P450cam films. However, available capillary electrophoresis and HPLC-MS/MS methods were not sensitive enough to detect and identify damaged DNA directly from the protein-DNA films. Thus, capillary electrophoresis and HPLC-MS were used to confirm that reaction of styrene oxide with DNA in (PDDA/DNA)2 films and in solution gave the reported DNA-styrene oxide adducts. […]

[9] = system: ds-CT DNA; assay: ECL/SWV of (Ru-PVP/ds-DNA)2 films after incubation; details: saturated solution, 37° C., pH 5.5
Experimental: Film assembly. DNA-redox polymer films were constructed by the layer-by-layer electrostatic assembly method. Basal plane PG electrodes were polished with 400 grit SiC paper and then with 0.3 μm α-alumina slurries on Buehler Microcloth, washed with water, sonicated in ethanol for 15 minutes, and then sonicated in water for 15 minutes. Layers were constructed by placing a 30 μL drop of 0.2% aqueous [Ru(bpy)2(PVP)10](CIO4)2 onto each PG electrode, allowing 15 minutes to achieve saturated adsorption and then washing with water. Subsequently, 30 μL of DNA solution (2 mg mL^−1 DNA in 5 mM pH 5.5 acetate buffer+0.05 M NaCl) was place on this PG surface, allowed to adsorb 15 min, and then washed with water. This sequence was repeated to obtain films with 2 redox polymer/DNA bilayers. Films containing ss-DNA and other polynucleotides were also assembled in this way. Assembly of films was monitored at each step with a quartz crystal microbalance.
Reactions with Styrene Oxide. Incubations of films were done in styrene oxide solutions in a stirred reactor at 37.0±0.5° C. […] PG electrodes coated with polynucleotide or DNA films were incubated in the stirred emulsion and then rinsed with water and transferred to the electro-chemical cell containing pH 5.5 buffer for SWV/ECL analysis.
Error bars in FIGS. 22, 23 are mainly the result of electrode-to-electrode variability.

Rate of increase of SWV peak current, less than with Mb/ST-DNA films ([1]; cyt P450cam films versus Mb/ST-DNA films, styrene and hydrogen peroxide)	Slope of Ip,i/Ip,f peak ratio vs. time, compared with Mb films [3]	Ip,i/Ip,f peak current ratio vs. reaction time ([5]; Mb films, 4% styrene or 4% toluene + 2 mM hydrogen peroxide, over 45 min)	SWV peak height for reduction of Co(bpy)3^3+ at 0.04 V vs. SCE ([5]; Mb/ST-ds-DNA films, 4% styrene and 2 mM H2O2, 37° C., pH 5.5, 20 μM Co(bpy)3^3+)	SMILES	SWV catalytic peak current (DNA damage) ([1]; cyt P450cam/ST-ds-DNA films, 2% styrene + 0.2 mM H2O2, 50 μM Ru(bpy)3^2+)	Ratio of final peak current after incubation to initial peak current ([2]; saturated styrene and H2O2, pH 5.5)	SWV peak current at 0.75 V [2]	Dependence of catalytic SWV peak height on styrene concentration ([4]; Mb/DNA films activated by H2O2, styrene 1-4%)	Catalytic SWV oxidation peak current (DNA damage) ([4]; Mb/DNA films, 37° C., pH 5.5, with 0.2 mM H2O2, 2% styrene, 2% toluene or 0.2 mM benzaldehyde, read in 50 μM Ru(bpy)3^2+)	Catalytic SWV oxidation peak current (DNA damage) ([4]; ST-DNA/Mb films, 2% styrene but no H2O2)	Increase in ECL intensity [6]	Increase in SWV peak current [6]	Number of styrene oxide adducts each for dA and dG [7]	DNA-styrene oxide adduct peaks in capillary electropherogram [8]	ECL peak vs. incubation time [9]	SWV peak vs. incubation time [9]
about 30%	smaller slopes	linear increases	decreased with incubation time	C=Cc1ccccc1 [styrene]	rapid increase in SWV peak current for the first five minutes was followed by a slower increase from 5-30 minutes	showed an increase over the first 15 minutes and then decreased gradually	increased	did not depend on styrene concentration between 1-4%	increased with reaction time	No significant increases in peak current or trends with incubation time						
				c1ccc(C2CO2)cc1 (stereo not drawn) [styrene oxide]							40%	80%	at least 4	new peaks evident	increases in the ECL and the SWV peaks were observed with increasing incubation time	increases in the ECL and the SWV peaks were observed with increasing incubation time
				Cc1ccccc1 [toluene]			did not show increases				nearly identical to initial values	nearly identical to initial values			showed no trends with incubation time	showed no trends with incubation time
